Patent US5147876A, “2,6-di,2,4,6-, 2,5,6-tri and 2,4,5,6-tetra-substituted pyrimidines, their pharmaceutically acceptable salts, pharmaceutical compositions containing same and their use in the treatment of neurological diseases” (Mitsui Petrochemical Industries, Ltd., priority 1988, dated 1992)
Where “and” joins values, the source holds several entries; their conditions need not be identical. Equal entries are not always repeated.

Assays:
[1] = test system: neuro-2a (mouse neuroblastoma cells); test: Action on neuro-2a: proportion of cells containing outgrown neurites; type: cell-based; settings: mean ± S.D.
Summary of the method: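 Mouse neuro-2a cells at 1,000 cells/well in DMEM with 10% FCS were cultured one day at 37 °C, 5% CO2, then glutaraldehyde-fixed and methylene-blue-stained. The proportion of cells bearing a neurite at least twice the cell's long diameter was counted over >200 cells; up to 6 concentrations, triplicate runs.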

[2] = test system: rats with crushed sciatic nerves; test: Weight of muscle extensor digitorum longus in rats with crushed sciatic nerves; type: in vivo, rat (male Wistar); settings: thirty days after operation, mean ± S.D.
Procedure: (§1) The therapeutic effect of the compound of the invention was tested on rats having crushed sciatic nerves as a model of peripheral nervous disorder using (1) a change in the action of the hind paw with the crushed sciatic nerves and (2) a change in the weight of the muscle as an index of the course of degeneration and regeneration of peripheral nerves.
(§2) In the experiment, male Wistar rats (6 weeks old), seven per group, were used. The sciatic nerves were crushed by a method similar to the method of Yamatsu et al. (see Kiyomi Yamatsu, Takenori Kaneko, Akifumi Kitahara and Isao Ohkawa, Journal of Japanese Pharmacological Society, 72, 259-268 (1976) and the method of Hasegawa et al. (see Kazuo Hasegawa, Naoji Mikuni and Yutaka Sakai, Journal of Japanese Pharmacological Society, 74, 721-734 (1978). Specifically, under anesthesia with pentobarbital (40 mg/kg, i.p.), the left side sciatic nerve was exposed at the femur, and a specific site of the exposed sciatic nerve was crushed for 30 seconds by using a hemostat. After the crushing, the operation site was immediately sutured. Thereafter, vincristine known to retard the regeneration of the peripheral nerve was intraperitoneally administered in a dose of 100 g/kg once a week.
(§3) Compounds of the invention were selected as test drugs, and administered intraperitoneally once a day from the day of crushing to 30th day from then. To a control group, only 0.9 % saline was administered.
It is known that removal of a nerve or its disorder causes atorphy of the muscle which is under its control, and the atrophy is gradually cured by re-control by the nerve. For this reason, a change in the weight of the muscle, which is quantitative, was selected as an index. Thirty days after the operation, the muscles extensor digitorum longus of both hind paws which are muscles under the control of sciatic nerves were extracted under anesthesia, and their weights were measured. The ratio of the weight of the muscle extensor digitorum longus on the crushed side to that of normal side was calculated and expressed in percentage (%).

[3] = test system: NS-20Y (mouse neuroblastoma cells); test: Activity on NS-20Y cells: appearance of neurites; type: cell-based
Summary of the method: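 Mouse neuroblastoma NS-20Y cells were grown in polyornithine-coated dishes in DMEM with 10 % FCS, 100 units/ml penicillin G sodium and 100 micrograms/ml streptomycin sulfate, at 37° C under 5 % carbon dioxide, and exposed to compound. Cells were fixed with 4 % glutaraldehyde, stained with 0.05 % methylene blue, and the fraction bearing neurites at least twice the cell's long diameter was counted microscopically.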

[4] = test system: rats with lesioned nigral dopaminergic nerve cells; test: Motor imbalance (methamphetamine-induced rotation) after 6-hydroxydopamine lesion and transplantation of fetal cerebral cells; type: in vivo, rat (female Wistar)
Procedure: Nigral dopaminergic nerve cells at the left side of the brain of 4-week old female Wistar rats (body weight 100 g) were lesioned by injecting a very small quantity of 6-hydroxydopamine. […] Upon administration of methamphethamine (5 mg/kg, i.p.) to the rats having the lesioned nigral dopaminergic nerve cells, they began rotational movement toward the lesioned side.
After two weeks from the destruction by the administration of the drug, portions of the […] containing dopamine cells (i.e., substantial nigra and the tagmentum at the abdomen side) were cut from the brain of a fetal rat of 14 to 17 days of age, cut finely, and treated with trypsin. Then, the extracted tissues were incubated at 37° C. for 30 minutes, and the tissues were subjected to pipetting to form a suspension. Five microliters of the suspension was transplanted each into two sites of the caudate nucleus of the lesioned side (10 microliters in total, about 10^5 cells)
Compound No. 168 of the invention was administered in a dose of 156 mg/kg (i.p.) for 4 days from the day of transplantation, then with a suspension of 7 days, for 10 days in a dose of 50 mg/kg (i.p.) from the 11th day. Compound No. 296 was administered in a dose of 153 mg/kg, and then 50 mg/kg, in accordance with the same schedule.
Compound No. 3144 was also administered in accordance with the same schedule in a dose of 135 mg/kg, and then 45 mg/kg.
The rotational movements induced by administration of methamphetamine were examined 2 weeks and 1 week before, and 2 (or 3), 4, 6 and 8 weeks after, the transplantation and the administration of the drug. The number of rotational movements for the first one minute was counted at intervals of 10 minutes after the administration of methamphetamine, and the total number of rotational movements counted six times was averaged to find a mean number of the rotational movements.

[5] = test system: rats with crushed sciatic nerves; test: Twitch tension of hind paw in rats with crushed sciatic nerves; type: in vivo, rat (male Wistar)
Procedure: as §1, §2, §3
Twitch tension, which is a transient tension incident to contraction of the dominated muscles that occurs by electrical stimulation or the like of motor nerves, as is the case with the interdigit distance to be described, is considered to reflect functional changes of the nerves and muscles.
[…] J. Neurosci. Methods, 19, 259 (1987)]. Specifically, the hair on the hind paw of rats was shaven, and coated with Cardiocream (a product of Nihon Denko K.K.). Then, to the skin of the hind paw, electrodes with an alligator were attached The cathode was attached to the rear portion of the trochiter, and the […], to a site 1 cm rearwardly of the […] electrode and 1 cm toward its back. The rat was fixed on its back, and the hind paw to be measured was fixed perpendicularly. A silk yarn, about 20 cm long, was connected at one end to the third efferent toe joint of the hind paw to be measured and at the other end to a tension transducer. Isotonic contractions of the third muscle digitus flexus were recorded on a polygraph. Electrical stimulation was effected at a voltage of 100V for a continuous duration of 1 msec. with rectangular waves at a frequency of 2 Hz. The static tension was 15 to 30 g, and 10 stimulations were repeated 3 times with intervals of 15 seconds. The contracting force was expressed as tension (g). From the measured values of both paws, the recovery ratio (%, left/right) of the contracting force of the paw with crushed nerves was calculated.

Acute toxicity on mice = type: in vivo; settings: mouse, in vivo, ip, 24 hours after administration; read-out: Estimated LD50
Procedure: (§4) The acute toxicity of the compounds of the invention was examined by the following method.
(§5) Male ddy-strain 5-week old mice, 4-6- per group, were used as experimental animals. Each of the compounds was intraperitoneally (i.p.), and the toxicity of the compound was assessed 24 hours after the administration.

[6] = test system: rats having crushed sciatic nerves; test: Interdigit distance in rats with crushed sciatic nerves; type: in vivo, rat (male Wistar); settings: 30 mg/kg, i.p.
Procedure: as §1
as §2, with “Thereafter, vincristine known to retard the regeneration of the peripheral nerve was intraperitoneally administered in a dose of 100 g/kg once a week.” left out
By a method similar to the method of Hasegawa [Hasegawa, K., Experientia, 34, 750-751 (1978)], the distance between the first and fifth digits of the hind paw was measured.
The ratio of the measured distance to the interdigit distance in a normal hind paw was calculated and expressed in percentage (%). […]

mice = test: Acute toxicity on mice; type: in vivo; settings: 24 hours after administration
Procedure: as §4, §5

[7] = 3 W after transplantation, i.p. 168: 156 then 50, 296: 153 then 50, 3144: 135 then 45 mg/kg
[8] = 4 W after transplantation, i.p. 168: 156 then 50, 296: 153 then 50, 3144: 135 then 45 mg/kg
[9] = 6 W after transplantation, i.p. 168: 156 then 50, 296: 153 then 50, 3144: 135 then 45 mg/kg
[10] = 8 W after transplantation, i.p. 168: 156 then 50, 296: 153 then 50, 3144: 135 then 45 mg/kg
[11] = -1 W (before transplantation and drug)
[12] = Table 14, 30 mg/kg i.p. once a day, 30 days, mean ± S.D., 168: *3 p < 0.01, 296: *2 p < 0.05

CN(C(=O)c1ccccc1)c1ccnc(N2CCC(c3ccccc3)CC2)n1 [Compound 168, 4-(N-methylbenzamino)-2-(4-phenylpiperidino)pyrimidine p-toluenesulfonate]
Number of cells having neurites with a length at least two times the diameter of each cell/total number of cells ([1]; 0.05 mM): 23.8 ± 2% | Number of cells having neurites with a length at least two times the diameter of each cell/total number of cells ([1]; 0.1 mM): 35.7 ± 0.8% | Number of cells having neurites with a length at least two times the diameter of each cell/total number of cells ([1]; 0.2 mM): 24.4 ± 6.9% | Number of cells having neurites with a length at least two times the diameter of each cell/total number of cells ([1]; 0.3 mM): 14.6 ± 4.3% | Weight of muscle extensor digitorum longus left/right ([2]; 10 mg/kg): 52.1 ± 5.4% | Weight of muscle extensor digitorum longus left/right ([2]; 30 mg/kg, *2 p < 0.05): 59.4 ± 11.8% | Number of cells in which neurites appeared/total number of cells ([3]; 24 hours, 0.1 mM): 26/50 | Number of cells in which neurites appeared/total number of cells ([3]; 24 hours, 0.25 mM): 12/50 | Number of cells in which neurites appeared/total number of cells ([3]; 48 hours, 0.1 mM): 20/55 | mean number of the rotational movements [4, 7]: 9.1 ± 5.6 | mean number of the rotational movements [4, 8]: 4.5 ± 4.5 | mean number of the rotational movements [4, 9]: 1.5 ± 3.9 | mean number of the rotational movements [4, 10]: 0.8 ± 2.1 | mean number of the rotational movements [4, 11]: 13.3 ± 7.8 | Twitch tension left/right ([5]; Table 14, 10 mg/kg i.p. once a day, 30 days, mean ± S.D., *2 p < 0.05): 48.4 ± 11.8% | Twitch tension left/right [5, 12]: 51.2 ± 13.6% | LD50 at 24 h (Acute toxicity on mice): > 1000 mg/kg

CN1C(=O)Cc2cnc(N3CCN(C(c4ccccc4)c4ccc(Cl)cc4)CC3)nc21 (stereo not shown) [Compound 3144]
Number of cells having neurites with a length at least two times the diameter of each cell/total number of cells ([1]; 0.03 mM): 20.8 ± 4.7% | Number of cells having neurites with a length at least two times the diameter of each cell/total number of cells ([1]; 0.1 mM): 34.1 ± 3.8% | Number of cells having neurites with a length at least two times the diameter of each cell/total number of cells ([1]; 0.3 mM): 44.5 ± 9.7% | Number of cells having neurites with a length at least two times the diameter of each cell/total number of cells ([1]; 1 mM): 32.2 ± 1.6% | Recovery of the interdigit distance ([6]; 18th days): 72.7 ± 14.0% | Recovery of the interdigit distance ([6]; 23rd days): 83.8 ± 12.2% | mean number of the rotational movements [4, 7]: 7.7 ± 4.7 | mean number of the rotational movements [4, 8]: 4.0 ± 5.6 | mean number of the rotational movements [4, 9]: 0.2 ± 2.2 | mean number of the rotational movements [4, 10]: 1.1 ± 4.1 | mean number of the rotational movements [4, 11]: 14.1 ± 4.7 | Twitch tension left/right ([5]; Table 15, 30 mg/kg, 18th days): 54.5 ± 17.1% | Twitch tension left/right ([5]; Table 15, 30 mg/kg, 23rd days): 57.9 ± 15.5% | LD50 at 24 h (Acute toxicity on mice): 500 to 1000 mg/kg

CN(C(=O)c1ccc(Cl)cc1Cl)c1ccnc(N2CCC(c3ccccc3)CC2)n1.Cc1ccc(S(=O)(=O)O)cc1 [Compound 171-11]
Number of cells having neurites with a length at least two times the diameter of each cell/total number of cells ([1]; 0.03 mM): 5.9 ± 0.9% | Number of cells having neurites with a length at least two times the diameter of each cell/total number of cells ([1]; 0.1 mM): 36.8 ± 7.1% and 22.1 ± 2.3% | Number of cells having neurites with a length at least two times the diameter of each cell/total number of cells ([1]; 1 mM): 31.7 ± 5.9% | Number of cells in which neurites appeared/total number of cells ([3]; 24 hours, 0.3 mM): 5/50 | Number of cells in which neurites appeared/total number of cells ([3]; 48 hours, 0.1 mM): 2/50 | Estimated LD50 (mice): > 1000 mg/kg, i.p.

CN(C(=O)c1ccco1)c1ccnc(N2CCC(c3ccccc3)CC2)n1 [Compound 296]
Number of cells having neurites with a length at least two times the diameter of each cell/total number of cells ([1]; 0.1 mM): 44.4 ± 5.5% | Number of cells having neurites with a length at least two times the diameter of each cell/total number of cells ([1]; 0.3 mM): 22.4 ± 3.0% | Weight of muscle extensor digitorum longus left/right ([2]; 30 mg/kg, *2 p < 0.05): 56.9 ± 9.7% | Number of cells in which neurites appeared/total number of cells ([3]; 24 hours, 0.1 mM): 9/49 | Number of cells in which neurites appeared/total number of cells ([3]; 48 hours, 0.1 mM): 2/50 | mean number of the rotational movements [4, 7]: 8.4 ± 5.0 | mean number of the rotational movements [4, 8]: 3.1 ± 3.4 | mean number of the rotational movements [4, 9]: 0.9 ± 2.3 | mean number of the rotational movements [4, 10]: 1.0 ± 1.5 | mean number of the rotational movements [4, 11]: 13.2 ± 4.1 | Twitch tension left/right [5, 12]: 48.1 ± 9.4% | LD50 at 24 h (Acute toxicity on mice): > 1000 mg/kg
